Test results: patent publication US11285167B2, “Synergistic nutritional neuroprotective compositions for ameliorating neural dysfunction” (CELAGENEX RESEARCH (INDIA) PVT. LTD., priority 2019, dated 2022)

Tests used:
[1] = tested on: Lactate dehydrogenase; assay: Lactate dehydrogenase (LDH) level in Valproic acid-induced autism disorder; format: in vivo, Albino wistar rats; conditions: for LDH: VPA 400 mg/kg, oral daily for 26 days, mean ± SEM; for Levels of lactate dehydrogenase (in words): compared to Disease control or to Group-3 and Group-4
Description: (§1) The present study was to evaluate the effect of test substances on Valproic acid induced Autism spectrum disorder in wistar rats. The animals (50 animals) were divided into five groups each group consisting of 10 animals (5 animals per sex). Animals in Group-1 were treated with vehicle (0.5% CMC), Group-2 was treated with Valproic acid (VPA) 400 mg/kg via subcutaneous route, Group-3, Group-4 and Group-5 were treated with test substance Agmatine Sulphate (25.83 mg/kg), Nicotinamide Riboside chloride (6.46 mg/kg) and Agmatine Sulphate+Nicotinamide Riboside chloride (25.83 mg/kg+6.46 mg/kg) respectively, according to the body weight of animals. At the end of the experimental period, blood was collected from each group for biochemical analyses. On postnatal day 40 (PND 40), all the animals were exposed to the Morris water maze test and Open field test for specific time periods to determine the autism-like behaviors of the test substances.
The experiment was performed in 14-day old male and female off springs. The weight of the rat pups on the first day of the experiment was 20-40 grams. Sodium Valproate at dose of 400 mg/kg was freshly prepared and administered via subcutaneous route to the rat pups on postnatal day 14 (PND 14). All the animals were divided into five groups and each group contained the same amount of male and female offspring (5 males and 5 females, per group). Animals in Group-1 served as Normal control and were treated with 0.5% CMC, Group-2 served as Disease control and were treated with VPA (400 mg/kg) via intraperitoneally (i.p.), whereas Group-3 was treated with Test-1 Agmatine Sulphate (25.83 mg/kg), Group-4 was treated with Test-2 Nicotinamide Riboside chloride (6.46 mg/kg) and Group-5 was treated with Test-1+Test-2 Agmatine Sulphate+Nicotinamide Riboside chloride (25.83 mg/kg+6.46 mg/kg). The assigned test substances were administered once daily from PND 14 to PND 40. In addition, behaviors of experimental animals were determined via Morris water maze and open field test.
The test item formulations were administered once each day by oral route at the dose levels of 25.83 mg/kg (agmatine sulphate), 6.46 mg/kg (nicotinamide riboside chloride) and 25.83 mg/kg+6.46 mg/kg/day (agmatine sulphate+nicotinamide riboside chloride), to rats of corresponding groups for a minimum of 26 consecutive days at approximately same time each day (±1 hour). The dose volume administered to each rat was 10 ml/kg/day. Similarly, 0.5% CMC for Normal control and Disease control groups was administered orally at the same dose volume for a minimum of 26 consecutive days. The dose volume was calculated for individual animals on the first day of the treatment and was re-calculated according to the recent body weights recorded during the study. Daily individual dose volumes were recorded in the study records.
Lactate dehydrogenase (also called lactic acid dehydrogenase or LDH) is an enzyme found in almost all body tissues. It plays an important role in cellular respiration, the process by which glucose (sugar) from food is converted into usable energy for our cells.

[2] = tested on: Major depression disorder in Wistar rats; assay: Forced swim test in Reserpine-induced major depression disorder; format: in vivo; conditions: for Immobility / mobility in forced swim test (in words): compared to disease control or to individual test substances
[3] = tested on: Valproic acid-induced autism disorder in albino Wistar rats; assay: Overall autism-like behavior in VPA model of autism disorder; format: in vivo
Description: as §1, with “substances. […] The experiment was performed in 14-day old male and female off springs. The weight of the rat pups on the first day of the experiment was 20-40 grams. Sodium Valproate at dose of 400 mg/kg was freshly prepared and administered via subcutaneous route to the rat pups on postnatal day 14 (PND 14). […] In addition, behaviors of experimental animals were determined via Morris water maze and open field test. […]” for “substances.”

[4] = tested on: TNF alpha; assay: TNF alpha level in global ischemia reperfusion induced brain injury (cerebral infarction) model; format: in vivo, Wistar rats; conditions: global ischemia (30 min)/72 h reperfusion, oral daily for 10 days, mean ± SEM, n = 6
[5] = forced swim test 5 min, Reserpine 1.0 mg/kg induced, oral daily 7 days, mean ± SEM, n = 6

SMILES	LDH ([1]; Female) [U/L]	LDH ([1]; Male) [U/L]	Levels of lactate dehydrogenase (in words) [1]	Immobility / mobility in forced swim test (in words) [2]	Climbing [2, 5]	Immobility [2, 5]	Autism-like behavior (in words) [3]	TNF alpha Level [4] [pg/mL]	Total time spent in active swimming [2, 5] [s]
N=C(N)NCCCCN.O=S(=O)(O)O [Agmatine sulphate]	272.20 ± 3.34	268.20 ± 2.56	normalized levels of lactate dehydrogenase	mobility of the animals in the treatment groups increased	16.50 ± 0.43	99.67 ± 0.67	improved autism-like behavior	142.00 ± 1.53	
NC(=O)c1ccc[n+]([C@@H]2O[C@H](CO)[C@@H](O)[C@H]2O)c1.[Cl-] [Nicotinamide Riboside chloride, nicotinamide riboside chloride]	275.80 ± 1.71	274.00 ± 3.11	normalized levels of lactate dehydrogenase	mobility of the animals in the treatment groups increased	15.50 ± 0.62	105.50 ± 0.85	improved autism-like behavior	160.33 ± 4.79	185.33 ± 0.67
